{"source": "patent US20260263576A1", "about": "“DNA VACCINE TARGETING OVEREXPRESSED ANTIGENS IN COLORECTAL CANCER” (UNIVERSITY OF WASHINGTON, priority 2023, published 2026)", "key": {"[1]": {"system": "tumors from Apc^Min/+ mice", "experiment": "Immunohistochemistry of tumors (CD8, PD-L1), ApcMin/+ mice", "type": "in vivo", "conditions": "naproxen intermittently or continuously, p<0.001", "description": "Immunohistochemistry. Tumors removed from the intestine were covered with Tissue-Tek O.C.T Compound in a cryomold and stored at −80° C. Frozen blocks were sectioned and fixed with 75% acetone/25% methanol for 5 minutes. The slides were washed thrice with PBS and 10% goat serum was added for 1 hour at room temperature followed by an anti-mouse PD-L1 (abcam; clone: MIH6; 1/100 dilution) or anti-mouse CD8 (AbD Serotec; clone KT15; 1/200 dilution) overnight at 4° C. After washing, the slides were incubated with AlexaFluor 488 anti-rat IgG (abcam; 1:1000 dilution) for 1 hour at room temperature. Positive cells were counted in three 20× microscopic fields and expressed as the mean percent of total cells."}, "[2]": {"system": "tumor infiltrating lymphocytes", "experiment": "Immunophenotyping of tumor infiltrating lymphocytes, ApcMin/+ mice", "type": "in vivo", "conditions": "APC^Min/+", "description": "(§1) Immunophenotyping. After removing up to 10 polyps in ApcMin/+, and 1-2 polyps in AOM treated mice, remaining tumors were removed from the intestinal tissue with forceps and applied to a 70 μm filter, washed through with flow cytometry buffer (PBS/1% FBS/2 mM EDTA) and red cells lysed. […] Prior to surface staining, cells were stained with Fixable viability dye 450 (eBiosciences; 1:1000) in PBS and then washed in flow cytometry buffer. Intracellular staining was performed using the FOXP3 buffer set (Thermo Fisher Scientific). Antibodies were obtained from BD Bioscience, Biolegend or Thermo Fisher Scientific. […] Analysis was performed on FACS Canto RUO and data analyzed using FlowJo software (BD Biosciences). […] Results are reported as a percentage of total cell number or a percentage of a specific cell population."}, "[3]": {"system": "splenocytes stimulated with the vaccine peptide pool", "experiment": "Antigen-specific IFN-γ ELISPOT of splenocytes, ApcMin/+ mice", "type": "in vivo", "conditions": "any regimen of naproxen, adjuvant only", "description": "(§2) Analysis of peptide-specific T-cell responses. […] Data are reported as pg/ml."}, "[4]": {"system": "tumor infiltrating lymphocytes", "experiment": "Immunophenotyping of tumor infiltrating lymphocytes, AOM-treated mice", "type": "in vivo", "description": "as §1"}, "Granzyme B": {"system": "Granzyme B", "experiment": "Granzyme B ELISA of ELISPOT supernatant, ApcMin/+ mice", "type": "in vivo", "description": "as §2"}, "human PBMC": {"system": "human PBMC", "experiment": "Th ratio from IFN-γ and IL-10 ELISPOT, human PBMC screening", "type": "cell-based", "description": "Vaccine. The vaccine consisted of the Th1-selective epitopes CDC25B-p132-156, COX2-p76-93, COX2-p276-295, EGFR-p880-895, and p962-976. The Th selective epitopes were determined in human PBMC screening by calculating the ratio of the product of the mean magnitude and percent incidence of response for IFN-γ and IL-10 ELISPOT assays (IFN-γ incidence X magnitude/IL-10 incidence X magnitude). Ratios greater than 7 defined Th1-selective epitopes (See Table 4)."}}}
{"compound": "COc1ccc2cc([C@H](C)C(=O)O)ccc2c1", "note": "[naproxen]", "values": [{"measurement": "tumor cell expression of PD-L1", "setting": "[1]", "value": "reduced"}, {"measurement": "tumor infiltrating CD8+ T-cells", "setting": "[1]", "value": "increased"}, {"measurement": "% CD4 of CD3+", "setting": "[2]; CON naproxen", "value": 30, "unit": "%"}, {"measurement": "% CD8 of CD3+", "setting": "[2]; CON naproxen", "value": 35, "unit": "%"}, {"measurement": "% CM of CD4+", "setting": "[2]; CON naproxen", "value": 14, "unit": "%"}, {"measurement": "% CM of CD8+", "setting": "[2]; CON naproxen", "value": 4, "unit": "%"}, {"measurement": "% EM of CD4+", "setting": "[2]; CON naproxen", "value": 60, "unit": "%"}, {"measurement": "% EM of CD8+", "setting": "[2]; CON naproxen", "value": 48, "unit": "%"}, {"measurement": "% Foxp3 of CD4", "setting": "[2]; CON naproxen", "value": 4, "unit": "%"}, {"measurement": "% GATA3 of CD4+", "setting": "[2]; CON naproxen", "value": 5, "unit": "%"}, {"measurement": "% MDSC", "setting": "[2]; CON naproxen", "value": 1, "unit": "%"}, {"measurement": "% PD1 of CD4+", "setting": "[2]; CON naproxen", "value": 3, "unit": "%"}, {"measurement": "% PD1 of CD8+", "setting": "[2]; CON naproxen", "value": 7, "unit": "%"}, {"measurement": "% Tbet of CD3", "setting": "[2]; CON naproxen", "value": 9, "unit": "%"}, {"measurement": "% CD4 of CD3+", "setting": "[2]; INT naproxen", "value": 14, "unit": "%"}, {"measurement": "% CD8 of CD3+", "setting": "[2]; INT naproxen", "value": 15, "unit": "%"}, {"measurement": "% CM of CD4+", "setting": "[2]; INT naproxen", "value": 18, "unit": "%"}, {"measurement": "% CM of CD8+", "setting": "[2]; INT naproxen", "value": 2, "unit": "%"}, {"measurement": "% EM of CD4+", "setting": "[2]; INT naproxen", "value": 41, "unit": "%"}, {"measurement": "% EM of CD8+", "setting": "[2]; INT naproxen", "value": 44, "unit": "%"}, {"measurement": "% Foxp3 of CD4", "setting": "[2]; INT naproxen", "value": 2, "unit": "%"}, {"measurement": "% GATA3 of CD4+", "setting": "[2]; INT naproxen", "value": 4, "unit": "%"}, {"measurement": "% MDSC", "setting": "[2]; INT naproxen", "value": 4, "unit": "%"}, {"measurement": "% PD1 of CD4+", "setting": "[2]; INT naproxen", "value": 5, "unit": "%"}, {"measurement": "% PD1 of CD8+", "setting": "[2]; INT naproxen", "value": 7, "unit": "%"}, {"measurement": "% Tbet of CD3", "setting": "[2]; INT naproxen", "value": 11, "unit": "%"}, {"measurement": "antigen-specific IFN-γ", "setting": "[3]", "value": "did not result in increased"}, {"measurement": "% CD4 of CD3+", "setting": "[4]; CON naproxen", "value": 61, "unit": "%"}, {"measurement": "% CD8 of CD3+", "setting": "[4]; CON naproxen", "value": 12, "unit": "%"}, {"measurement": "% CM of CD4+", "setting": "[4]; CON naproxen", "value": 6, "unit": "%"}, {"measurement": "% CM of CD8+", "setting": "[4]; CON naproxen", "value": 8, "unit": "%"}, {"measurement": "% EM of CD4+", "setting": "[4]; CON naproxen", "value": 43, "unit": "%"}, {"measurement": "% EM of CD8+", "setting": "[4]; CON naproxen", "value": 52, "unit": "%"}, {"measurement": "% Foxp3 of CD4", "setting": "[4]; CON naproxen", "value": 5, "unit": "%"}, {"measurement": "% GATA3 of CD4+", "setting": "[4]; CON naproxen", "value": 2, "unit": "%"}, {"measurement": "% MDSC", "setting": "[4]; CON naproxen", "value": 6, "unit": "%"}, {"measurement": "% PD1 of CD4+", "setting": "[4]; CON naproxen", "value": 3, "unit": "%"}, {"measurement": "% PD1 of CD8+", "setting": "[4]; CON naproxen", "value": 4, "unit": "%"}, {"measurement": "% Tbet of CD3", "setting": "[4]; CON naproxen", "value": 10, "unit": "%"}, {"measurement": "% CD4 of CD3+", "setting": "[4]; INT naproxen", "value": 66, "unit": "%"}, {"measurement": "% CD8 of CD3+", "setting": "[4]; INT naproxen", "value": 11, "unit": "%"}, {"measurement": "% CM of CD4+", "setting": "[4]; INT naproxen", "value": 6, "unit": "%"}, {"measurement": "% CM of CD8+", "setting": "[4]; INT naproxen", "value": 6, "unit": "%"}, {"measurement": "% EM of CD4+", "setting": "[4]; INT naproxen", "value": 48, "unit": "%"}, {"measurement": "% EM of CD8+", "setting": "[4]; INT naproxen", "value": 53, "unit": "%"}, {"measurement": "% Foxp3 of CD4", "setting": "[4]; INT naproxen", "value": 5, "unit": "%"}, {"measurement": "% GATA3 of CD4+", "setting": "[4]; INT naproxen", "value": 3, "unit": "%"}, {"measurement": "% MDSC", "setting": "[4]; INT naproxen", "value": 6, "unit": "%"}, {"measurement": "% PD1 of CD4+", "setting": "[4]; INT naproxen", "value": 4, "unit": "%"}, {"measurement": "% PD1 of CD8+", "setting": "[4]; INT naproxen", "value": 4, "unit": "%"}, {"measurement": "% Tbet of CD3", "setting": "[4]; INT naproxen", "value": 9, "unit": "%"}, {"measurement": "Granzyme B levels, in words", "setting": "Granzyme B", "value": "did not result in increased"}]}
{"compound": "CDC25b-p132-156: peptide IQAASRIIRNEQFAIRRFQSMPVRL (SEQ ID NO: 1)", "values": [{"measurement": "Th ratio (IFN-γ incidence X magnitude/IL-10 incidence X magnitude)", "setting": "human PBMC", "value": 186}]}
{"compound": "COX2-p276-295: peptide EVFGLVPGLMMYATIWLREH (SEQ ID NO: 3)", "values": [{"measurement": "Th ratio (IFN-γ incidence X magnitude/IL-10 incidence X magnitude)", "setting": "human PBMC", "value": 17}]}
{"compound": "COX-2-p76-93: peptide YILTHFKGFWNVVNNIPF (SEQ ID NO: 2)", "values": [{"measurement": "Th ratio (IFN-γ incidence X magnitude/IL-10 incidence X magnitude)", "setting": "human PBMC", "value": 7}]}
